Tests used:
MAPK p38 phosphorylation = test: MAPK p38 Activation Assay (western blot), Panc-1; assay type: cell-based, human; details: at 10 μM, Panc-1 pancreatic cancer cell line; starred symbols = activation
How it was run: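 Panc-1 cells (KRas G12D) were treated with compound for 6 h at 37 °C, at 10 μM or as serial dilutions for IC50, with 0.3% DMSO. Method 1 used overnight serum-starved cells (0.5% FBS) stimulated with 1.5 ng/ml EGF for 15 min; Method 2 used unstimulated cells in 10% FBS. Phospho-p38 (Thr180/Tyr182) was detected by western blot.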

[1] = test system: Smad2/Smad3 phosphorylation; test: Phospho-Smad2/3 Inhibition Assay (western blot), Panc-1; assay type: cell-based, human; details: at 10 μM, Panc-1 pancreatic cancer cell line; starred symbols = activation
How it was run: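 Panc-1 cells (KRas G12D), starved overnight in 0.5% FBS, treated 3 h at 37° C with compound at 10 μM final (0.3% DMSO) or serial dilutions for IC50, then stimulated with 10 ng/ml TGF-b1 for 1 h. Phospho-Smad2 (Ser465/467) and phospho-Smad3 (Ser423/425) detected by western blot.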

Row | SMILES | % inh of MAPK p38 in Panc-1 (MAPK p38 phosphorylation) | % inh of Smad2/3 phosphorylation in Panc-1 [1]
1 | COc1ccnc(Nc2nc(-c3nccn3C)nn3cc(-c4cccnc4)c(-c4ccccc4)c23)c1 [Compound 196, N-(4-Methoxypyridin-2-yl)-2-(1-methyl-1H-imidazol-2-yl)-5-phenyl-6-(pyridin-3-yl)pyrrolo[2,1-f][1,2,4]triazin-4-amine] | F (F = 31-74% inhibition) | C (C = 46-75% inhibition)
2 | CO[C@H]1C[C@H](Nc2nc(-c3nccn3C)nn3cc(-c4cccnc4)c(-c4ccccc4)c23)C1 [Compound 192, N-((1r,3r)-3-Methoxycyclobutyl)-2-(1-methyl-1H-imidazol-2-yl)-5-phenyl-6-(pyridin-3-yl)pyrrolo[2,1-f][1,2,4]triazin-4-amine] | E* (E* = 1-30% activation) | A* (A* = 1-25% activation)
3 | CO[C@H]1C[C@@H](Nc2nc(-c3nccn3C)nn3cc(-c4cccnc4)c(-c4ccccc4)c23)C1 [Compound 191, N-((1s,3s)-3-Methoxycyclobutyl)-2-(1-methyl-1H-imidazol-2-yl)-5-phenyl-6-(pyridin-3-yl)pyrrolo[2,1-f][1,2,4]triazin-4-amine] | E* (E* = 1-30% activation) | A* (A* = 1-25% activation)
4 | CO[C@H]1C[C@H](Nc2nc(-c3nccn3C)nn3cc(-c4ccccc4)c(-c4ccccc4)c23)C1 [Compound 203, N-((1r,3r)-3-Methoxycyclobutyl)-2-(1-methyl-1H-imidazol-2-yl)-5,6-diphenylpyrrolo[2,1-f][1,2,4]triazin-4-amine] | G (G = 75-99% inhibition) | D (D = 76-100% inhibition)
5 | CO[C@H]1C[C@H](Nc2nc(-c3nccn3C)nn3cc(-c4ccc(CCN)cc4)c(-c4ccccc4)c23)C1.Cl [Compound 207, 6-(4-(2-Aminoethyl)phenyl)-N-((1r,3r)-3-methoxycyclobutyl)-2-(1-methyl-1H-imidazol-2-yl)-5-phenylpyrrolo[2,1-f][1,2,4]triazin-4-amine hydrochloride salt] | H (H = 100% inhibition) | D (D = 76-100% inhibition)
6 | CO[C@@H]1C[C@H]1Nc1nc(-c2nccn2C)nn2cc(-c3ccncc3)c(-c3ccccc3)c12 (racemic) [Compound 197, rac N-((1R,2R)-2-methoxycyclopropyl)-2-(1-methyl-1H-imidazol-2-yl)-5-phenyl-6-(pyridin-4-yl)pyrrolo[2,1-f][1,2,4]triazin-4-amine] | F (F = 31-74% inhibition) | C (C = 46-75% inhibition)
7 | COC[C@@H]1CC[C@@H]1CNc1nc(-c2ccccn2)nn2cc(-c3ccn(C(C)C)n3)c(C)c12 (racemic) [Compound 11, rac 6-(1-Isopropyl-1H-pyrazol-3-yl)-N-(((1S,2R)-2-(methoxymethyl)cyclobutyl)methyl)-5-methyl-2-(pyridin-2-yl)pyrrolo[2,1-f][1,2,4]triazin-4-amine] | G* (G* = 75-99% activation) | 0 (0 = 0% inhibition)
8 | COCCCS(=O)(=O)Nc1nc(-c2nccn2C)nn2cc(-c3ccccc3)c(-c3ccccc3)c12 [Compound 213, 3-Methoxy-N-(2-(1-methyl-1H-imidazol-2-yl)-5,6-diphenylpyrrolo[2,1-f][1,2,4]triazin-4-yl)propane-1-sulfonamide] | F (F = 31-74% inhibition) | B (B = 26-45% inhibition)
9 | COc1cccc(-c2cn3nc(-c4nccn4C)nc(N[C@H]4C[C@H](OC)C4)c3c2-c2ccccc2)c1C [Compound 209, 6-(3-methoxy-2-methylphenyl)-N-((1r,3r)-3-methoxycyclobutyl)-2-(1-methyl-1H-imidazol-2-yl)-5-phenylpyrrolo[2,1-f][1,2,4]triazin-4-amine] | H (H = 100% inhibition) | D (D = 76-100% inhibition)
10 | COc1ccnc(Nc2nc(-c3nccn3CCN)nn3cc(-c4ccn(C)n4)c(C)c23)c1 [Compound 188, 2-(1-(2-Aminoethyl)-1H-imidazol-2-yl)-N-(4-methoxypyridin-2-yl)-5-methyl-6-(1-methyl-1H-pyrazol-3-yl)pyrrolo[2,1-f][1,2,4]triazin-4-amine] | E (E = 1-30% inhibition) | B (B = 26-45% inhibition)
11 | COc1cccc(Nc2nc(-c3ccccn3)nn3cc(-c4ccn(C(C)C)n4)c(C)c23)n1 [Compound 14, 6-(1-Isopropyl-1H-pyrazol-3-yl)-N-(6-methoxypyridin-2-yl)-5-methyl-2-(pyridin-2-yl)pyrrolo[2,1-f][1,2,4]triazin-4-amine] | H* (H* ≥ 100% activation) | 0 (0 = 0% inhibition)
12 | COc1ccnc(Nc2nc(-c3nccn3C)nn3cc(-c4c(F)cccc4OC)c(-c4ccccc4)c23)c1 [Compound 217, 6-(2-Fluoro-6-methoxyphenyl)-N-(4-methoxypyridin-2-yl)-2-(1-methyl-1H-imidazol-2-yl)-5-phenylpyrrolo[2,1-f][1,2,4]triazin-4-amine] | F (F = 31-74% inhibition) | C (C = 46-75% inhibition)
13 | CO[C@H]1CC[C@@H](Nc2nc(-c3nccn3C)nn3cc(-c4ccncc4)c(-c4ccccc4)c23)C1 (racemic) [Compound 200, rac N-((1R,3S)-3-Methoxycyclopentyl)-2-(1-methyl-1H-imidazol-2-yl)-5-phenyl-6-(pyridin-4-yl)pyrrolo[2,1-f][1,2,4]triazin-4-amine] | E (E = 1-30% inhibition) | A (A = 1-25% inhibition)
14 | Cc1c(-c2ccn(C)n2)cn2nc(-c3nccn3C)nc(Nc3cc4c(cn3)CCO4)c12 [Compound 221, N-(5-Methyl-2-(1-methyl-1H-imidazol-2-yl)-6-(1-methyl-1H-pyrazol-3-yl)pyrrolo[2,1-f][1,2,4]triazin-4-yl)-2,3-dihydrofuro[3,2-c]pyridin-6-amine] | E (E = 1-30% inhibition) | A (A = 1-25% inhibition)
15 | CO[C@H]1C[C@H](Nc2nc(-c3nccn3C)nn3cc(-c4ccc(CN)cc4)c(-c4ccccc4)c23)C1.Cl [Compound 206, 6-(4-(Aminomethyl)phenyl)-N-((1r,3r)-3-methoxycyclobutyl)-2-(1-methyl-1H-imidazol-2-yl)-5-phenylpyrrolo[2,1-f][1,2,4]triazin-4-amine hydrochloride salt] | E (E = 1-30% inhibition) | B (B = 26-45% inhibition)
16 | CO[C@H]1CC[C@H](Nc2nc(-c3nccn3C)nn3cc(-c4cccnc4)c(-c4ccccc4)c23)C1 (racemic) [Compound 194, rac N-((1S,3S)-3-Methoxycyclopentyl)-2-(1-methyl-1H-imidazol-2-yl)-5-phenyl-6-(pyridin-3-yl)pyrrolo[2,1-f][1,2,4]triazin-4-amine] | E (E = 1-30% inhibition) | A (A = 1-25% inhibition)
17 | COCC1CCN(c2nc(-c3ccccn3)nn3cc(-c4ccn(C(C)C)n4)c(C)c23)C1 (racemic) [Compound 10, rac 6-(1-Isopropyl-1H-pyrazol-3-yl)-4-(3-(methoxymethyl)pyrrolidin-1-yl)-5-methyl-2-(pyridin-2-yl)pyrrolo[2,1-f][1,2,4]triazine] | G* (G* = 75-99% activation) | A (A = 1-25% inhibition)
18 | CO[C@H]1C[C@H](Nc2nc(-c3nccn3C)nn3cc(-c4cccc(CN)c4)c(-c4ccccc4)c23)C1 [Compound 204, 6-(3-(aminomethyl)phenyl)-N-((1r,3r)-3-methoxycyclobutyl)-2-(1-methyl-1H-imidazol-2-yl)-5-phenylpyrrolo[2,1-f][1,2,4]triazin-4-amine] | E (E = 1-30% inhibition) | A (A = 1-25% inhibition)
19 | CO[C@H]1CC[C@@H](Nc2nc(-c3nccn3C)nn3cc(-c4cccnc4)c(-c4ccccc4)c23)C1 (racemic) [Compound 193, rac N-((1R,3S)-3-Methoxycyclopentyl)-2-(1-methyl-1H-imidazol-2-yl)-5-phenyl-6-(pyridin-3-yl)pyrrolo[2,1-f][1,2,4]triazin-4-amine] | E (E = 1-30% inhibition) | A (A = 1-25% inhibition)
20 | COCCNc1nc(-c2nccn2C)nn2cc(-c3ccncc3)c(-c3ccccc3)c12 [Compound 202, N-(2-Methoxyethyl)-2-(1-methyl-1H-imidazol-2-yl)-5-phenyl-6-(pyridin-4-yl)pyrrolo[2,1-f][1,2,4]triazin-4-amine] | E (E = 1-30% inhibition) | A (A = 1-25% inhibition)
21 | CO[C@H]1C[C@H](Nc2nc(-c3nccn3C)nn3cc(-c4cnccc4C)c(-c4ccccc4)c23)C1 [Compound 218, N-((1r,3r)-3-Methoxycyclobutyl)-2-(1-methyl-1H-imidazol-2-yl)-6-(4-methylpyridin-3-yl)-5-phenylpyrrolo[2,1-f][1,2,4]triazin-4-amine] | F* (F* = 31-74% activation) | B* (B* = 26-45% activation)
